Experimental data reported in patent US4550021A (The Kitasato Institute, priority 1983, dated 1985).

Experiments:
Assay type in all cases: physicochemical
Nature (acid/base) = test: Nature (acid/base)
Solubility = conditions: for Solubility in organic solvents: dichloromethane, chloroform, acetone
Stability under heating = test: Stability under heating

With `CCC(=C/[C@H](C)C/C=C/C(C)=C/[C@@H](CO)C(=O)[C@@H](C)[C@H](O)[C@@H](C)C/C(C)=C/C(=O)O)/C=C/[C@@H]1OC(=O)C=C[C@@H]1C` [antibiotic 81-484] as the compound, how does the Nature (Nature (acid/base)) read?
Its Nature is “acidic substance”.

What about the “Solubility in organic solvents” value (Solubility; diethyl ether, methanol, ethyl acetate, butyl acetate, benzene) of the same compound?
The value was “soluble”.

What about the Solubility in hexane (Solubility; hexane) of the same compound?
The Solubility in hexane was “insoluble”.

What about the “Solubility in organic solvents” value (Solubility; many types: methanol, ethanol, methyl isobutyl ketone) of the same compound?
The value was “soluble”.

What about the Solubility in water (Solubility; water) of the same compound?
Its Solubility in water is “insoluble”.

And the stability under heating (Stability under heating)?
The stability under heating was “stable under heating”.
